Test results: patent US10787436B2, “Inhibitors of cyclin-dependent kinase 7 (CDK7)” (Dana-Farber Cancer Institute, Inc., priority 2012, dated 2020)
pIC50: −log10 of the molar value.

How the values were obtained:
CDK8/cyclin C = CDK8/cyclin C (Homo sapiens (Human), UniProt P49336); assay: Life Technologies LanthaScreen Eu kinase assay, CDK8; type: binding; settings: read-out: Calculated IC50, CDK8/cyclin C
JNK2 (MAPK9) = JNK2 (MAPK9) (Homo sapiens (Human), UniProt P45984); assay: Life Technologies Z'-Lyte kinase assay, JNK2; type: biochemical
RS4-11 = assay: Proliferation assay, CellTiter-Glo, 72 hour; type: cell-based; settings: blood cancer cell line, read-out: Inhibition of proliferation, RS4-11
A673 = assay: Proliferation assay, CellTiter-Glo, 72 hour; type: cell-based; settings: Ewing's sarcoma cell line, read-out: Inhibition of proliferation, A673
RD-ES = assay: Proliferation assay, CellTiter-Glo, 72 hour; type: cell-based; settings: Ewing's sarcoma cell line, read-out: Inhibition of proliferation, RD-ES
SAOS = assay: Proliferation assay, CellTiter-Glo, 72 hour; type: cell-based; settings: osteosarcoma cell line, read-out: Inhibition of proliferation, SAOS
MNNG-HOS Cl#5 = assay: Proliferation assay, CellTiter-Glo, 72 hour; type: cell-based; settings: osteosarcoma cell line, read-out: Inhibition of proliferation, MNNG-HOS Cl#5
FLAG-CDK7 WT = FLAG-CDK7 WT (Homo sapiens (Human), UniProt P50613); assay: In vitro kinase assay of FLAG-CDK7 immunoprecipitated from treated HCT116 cells; type: cell-based; settings: HCT116 cells treated 4 hours, dose-response
Method: Following the treatment, the cells were washed 2-fold with cold PBS and then lysed in the following lysis buffer: 50 mM TrisHCl pH 8.0, 150 mM NaCl, 1% NP-40, 5 mM EDTA, 1 mM DTT, and protease/phosphatase cocktails. Following clearance, the lysates were treated with compound I-49 for pulldown (or CDK7 antibody for IP) overnight at 4° C. The lysates were then incubated with streptavidin agarose for pulldown (or Protein G Agarose for IP) for an additional 2-3 hours at 4° C. Agarose beads were washed 5 times with a lysis buffer and then boiled in 2X SDS for 10 minutes at 95° C.
In vitro kinase assays with immunoprecipitated proteins (or recombinant CAK complexes) were performed as follows. Kinase reactions were performed in 25 μL of final volume of reaction buffer (50 mM Hepes, pH 7.5, 150 mM NaCl, 10 mM MgCl2, 5% glycerol, 25 μM ATP, and 10 μCi of [γ-32P]ATP). Each reaction contained 1 μg of RNAP II. Incubation was at 30° C. for 30-45 min. Reactions were terminated by addition of 5 μL of 5×SDS-PAGE sample buffer and incubated at 95° C. for 5 min. Reactions were analyzed by SDS-PAGE, and the dried gel was exposed to film or PhosphorImager plate.
HCT116 cells were generated stably expressing FLAG-CDK7 WT and C312S. […] CDK7 was then immunoprecipitated (IP) from each combination treatment using a FLAG antibody, and washed IPs were subjected to in vitro kinase assays (FIG. 4F). […]

[1] = tested on: retinal pigment epithelial (RPE1) cells; assay: Anti-proliferative assay, cell titer glo, 72 hours; type: cell-based, human
Method: At indicated time points, cellular lysates were harvested at the indicated times points and immunoblotted for the indicated proteins. […] Anti-proliferative effects were determined using cell titer glo analysis. […] Anti-proliferative effects were determined using alamarBlue® analysis. […] Anti-proliferative effects were determined using cell titer glo analysis. […] Dose: i.v. 1 mg/kg and p.o. 10 mg/kg.
Proliferation assays were conducted over a 48-72 hour time period (as noted). […] Cancer cell line profiling was performed over a 72 time period using Alamar Blue reagent.
CDK7 inhibitors display strong antiproflierative effects in leukemia and lymphoma cancer cells. However, a better definition of the breadth of their therapeutic potential in other cell types has not been reported. […] The rationale for examining such a large panel of human cancer cell lines is based on the fact that there is substantial genetic heterogeneity among human tumor cells, even with the same histological origins. In general, the data reveal a bimodal distribution with cell lines displaying exquisite sensitivity or apparent complete insensitivity to the compound.

CDK7 occupancy = assay: CDK7 ChIP-seq in Jurkat cells; type: cell-based, human
Method: After the indicated treatment time, cells were crosslinked for 10 minutes at room temperature by the addition of one-tenth of the volume of 11% formaldehyde solution (11% formaldehyde, 50 mM Hepes (pH 7.3), 100 mM NaCl, 1 mM EDTA (pH 8.0), 0.5 mM EGTA (pH 8.0)) to the growth media followed by two washes with PBS. Following the final PBS wash, supernatant was aspirated, and the cell pellet was flash frozen in liquid nitrogen. Frozen crosslinked cells were stored at −80° C.
50 μl of Dynal magnetic beads (Sigma) were blocked with 0.5% BSA (w/v) in PBS. Magnetic beads were bound with 5 μg of the indicated antibody. Antibodies used are as follows: Total RNAP II (Rpb1 N-terminus): Santa Cruz sc-899; CDK7: Bethyl A300-405A. Crosslinked cells were lysed with lysis buffer 1 (50 mM Hepes (pH 7.3), 140 mM NaCl, 1 mM EDTA, 10% glycerol, 0.5% NP-40, and 0.25% Triton X-100) and washed with lysis buffer 2 (10 mM Tris-HCl (pH 8.0), 200 mM NaCl, 1 mM EDTA (pH 8.0) and 0.5 mM EGTA (pH 8.0)). […]
Illumina sequencing libraries were generated, and data were processed according to Lin et al., Cell (2012) 151:56-67. […] These criteria preserved only reads that mapped uniquely to the genome with 1 or fewer mismatches. […]

Chain of JNK2 (MAPK9) (P45984 whole entry): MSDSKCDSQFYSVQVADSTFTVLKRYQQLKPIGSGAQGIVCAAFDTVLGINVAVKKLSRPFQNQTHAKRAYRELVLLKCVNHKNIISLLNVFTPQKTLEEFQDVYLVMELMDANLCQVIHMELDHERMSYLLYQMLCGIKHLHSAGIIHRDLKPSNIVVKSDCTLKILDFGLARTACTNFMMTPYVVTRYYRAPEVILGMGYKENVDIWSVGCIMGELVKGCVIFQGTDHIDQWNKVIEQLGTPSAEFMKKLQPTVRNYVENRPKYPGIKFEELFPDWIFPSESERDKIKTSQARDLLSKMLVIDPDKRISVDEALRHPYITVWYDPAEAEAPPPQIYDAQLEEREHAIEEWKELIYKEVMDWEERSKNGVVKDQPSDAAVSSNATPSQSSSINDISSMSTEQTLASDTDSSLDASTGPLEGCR
Chain of CDK8/cyclin C (P49336 whole entry): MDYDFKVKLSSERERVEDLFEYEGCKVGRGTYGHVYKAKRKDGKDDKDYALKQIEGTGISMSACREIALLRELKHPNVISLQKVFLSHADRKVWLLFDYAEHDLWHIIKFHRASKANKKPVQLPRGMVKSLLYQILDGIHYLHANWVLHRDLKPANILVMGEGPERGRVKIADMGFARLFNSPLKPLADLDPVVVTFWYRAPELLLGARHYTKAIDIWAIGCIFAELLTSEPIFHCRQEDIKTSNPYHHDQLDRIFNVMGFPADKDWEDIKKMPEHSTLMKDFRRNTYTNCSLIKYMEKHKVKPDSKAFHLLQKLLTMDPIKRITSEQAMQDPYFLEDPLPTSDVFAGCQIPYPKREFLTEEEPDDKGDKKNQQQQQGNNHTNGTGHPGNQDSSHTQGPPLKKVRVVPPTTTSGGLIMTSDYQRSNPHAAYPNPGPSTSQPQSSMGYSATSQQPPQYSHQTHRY
Chain of CDK8/cyclin C (P24863 whole entry partner): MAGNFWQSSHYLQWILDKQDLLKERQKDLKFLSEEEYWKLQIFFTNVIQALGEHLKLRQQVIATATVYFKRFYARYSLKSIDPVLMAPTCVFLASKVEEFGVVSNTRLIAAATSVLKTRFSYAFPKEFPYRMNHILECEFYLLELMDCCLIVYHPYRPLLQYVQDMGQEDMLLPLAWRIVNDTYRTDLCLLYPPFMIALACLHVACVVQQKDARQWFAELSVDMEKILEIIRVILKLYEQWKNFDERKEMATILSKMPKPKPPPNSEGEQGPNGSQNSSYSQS
Chain of FLAG-CDK7 WT (P50613 whole entry): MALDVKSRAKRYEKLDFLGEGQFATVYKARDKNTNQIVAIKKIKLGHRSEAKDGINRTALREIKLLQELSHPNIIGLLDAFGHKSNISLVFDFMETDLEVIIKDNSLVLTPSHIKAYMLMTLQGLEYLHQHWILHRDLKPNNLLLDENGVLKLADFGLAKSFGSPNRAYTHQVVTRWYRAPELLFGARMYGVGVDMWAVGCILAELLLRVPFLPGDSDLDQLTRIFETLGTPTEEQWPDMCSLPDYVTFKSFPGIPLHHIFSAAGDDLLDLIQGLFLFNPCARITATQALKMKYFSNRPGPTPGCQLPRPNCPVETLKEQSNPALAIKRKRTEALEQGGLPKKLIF
Chain of FLAG-CDK7 WT (P51946 whole entry partner): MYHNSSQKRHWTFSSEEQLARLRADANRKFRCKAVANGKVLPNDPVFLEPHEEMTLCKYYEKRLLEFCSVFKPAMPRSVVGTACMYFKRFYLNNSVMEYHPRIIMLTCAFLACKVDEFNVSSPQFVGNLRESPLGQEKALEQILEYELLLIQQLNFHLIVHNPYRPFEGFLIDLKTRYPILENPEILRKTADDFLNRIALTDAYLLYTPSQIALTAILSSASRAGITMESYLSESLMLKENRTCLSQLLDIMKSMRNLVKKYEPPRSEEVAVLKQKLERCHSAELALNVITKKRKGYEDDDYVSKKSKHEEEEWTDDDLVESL
Chain of FLAG-CDK7 WT (P51948 whole entry partner): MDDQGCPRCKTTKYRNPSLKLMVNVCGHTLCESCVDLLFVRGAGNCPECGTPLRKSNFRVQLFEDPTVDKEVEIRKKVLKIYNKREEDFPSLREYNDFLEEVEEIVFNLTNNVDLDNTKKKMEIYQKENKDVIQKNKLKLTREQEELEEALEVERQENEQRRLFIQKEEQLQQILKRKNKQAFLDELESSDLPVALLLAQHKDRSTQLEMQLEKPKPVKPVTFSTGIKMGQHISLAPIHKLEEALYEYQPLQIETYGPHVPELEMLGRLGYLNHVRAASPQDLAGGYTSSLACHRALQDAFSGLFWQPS

`CN(C)C/C=C/C(=O)Nc1ccc(C(=O)Nc2cccc(Nc3ncc(Cl)c(-c4c[nH]c5ccccc45)n3)c2)cc1` [Formula I-23] was tested, and the pIC50 (CDK8/cyclin C) was at most 6.00, the pIC50 (JNK2 (MAPK9); read-out: Calculated IC50, JNK2 (MAPK9)) was 6.00 to 7.00 and the “Percent inhibition, JNK2 ^b” value (JNK2 (MAPK9); superscript b (footnote not given; tested at 100 nM and 1 μM)) was “C (less than 50% inhibition)”. The pIC50 (RS4-11) was over 6.30, the pIC50 (A673) was over 6.30 and the pIC50 (RD-ES) was over 6.30. The pIC50 (SAOS) was over 6.30, the pIC50 (MNNG-HOS Cl#5) was 5.30 to 6.30 and the “Inhibition of FLAG-CDK7 WT kinase activity” value (FLAG-CDK7 WT) was “inhibited FLAG-CDK7 WT in a dose-dependent fashion”. The “Sensitivity of untransformed RPE1 cells” value [1] was “largely resistant” and the “CDK7 occupancy (association with chromatin)” value (CDK7 occupancy) was “did not disrupt CDK7 occupancy”.
